Data as given in patent publication US20080311594A1, “USE OF FIBROBLAST GROWTH FACTOR 7 (Fgf7) AND OF THE RECEPTOR Fgfr2b AS BIOMARKERS” (priority 2007, published 2008).
Read-outs that look alike come from different tables or passages of the source.

Assays:
[1] = tested on: MCF-7 cells; details: recombinant Fgf7 added to the culture medium, Chang et al. 2006; cited from earlier work
[2] = tested on: Fgfr2; assay: Gene expression of Fgfr2 in MXT tumours, real-time PCR; type: in vivo, mice; details: for Real-time regulation ZK-PRA NR versus vehicle control / Real-time regulation ZK-PRA R versus vehicle control: Fgfr2; for Real-time regulation ZK-PRA NR versus vehicle control: non-responder tumours; for Real-time regulation ZK-PRA R versus vehicle control: responder tumours
Protocol: (§1) For further gene expression studies, the RNA of selected tumours was isolated and analysed further by GeneChip analyses and real-time PCR:
(§2) The five largest tumours from the vehicle control group were selected.
(§3) A limit was set in the ovariectomized group and that treated with 11β-(4-acetyl-phenyl)-17β-hydroxy-17α-(1,1,2,2,2-pentafluoroethyl)estra-4,9-dien-3-one: tumours having a weight higher than 100 mg were assessed as non-responders, and tumours with a weight less than 100 mg were classified as responders.
(§4) Exactly as in Test 1, the limit for response to the therapy and the non-response was set here at a tumour weight of 100 mg. The five largest tumours were selected from the control group. The RNA was isolated from the tumours, and gene expression of the biomarker candidates was determined.

[3] = biological target: T1, progesterone receptor (Homo sapiens, UniProt P06401); details: Fuhrmann et al., J. Med. Chem. 2000; cited from earlier work
T1 sequence (P06401 1-933): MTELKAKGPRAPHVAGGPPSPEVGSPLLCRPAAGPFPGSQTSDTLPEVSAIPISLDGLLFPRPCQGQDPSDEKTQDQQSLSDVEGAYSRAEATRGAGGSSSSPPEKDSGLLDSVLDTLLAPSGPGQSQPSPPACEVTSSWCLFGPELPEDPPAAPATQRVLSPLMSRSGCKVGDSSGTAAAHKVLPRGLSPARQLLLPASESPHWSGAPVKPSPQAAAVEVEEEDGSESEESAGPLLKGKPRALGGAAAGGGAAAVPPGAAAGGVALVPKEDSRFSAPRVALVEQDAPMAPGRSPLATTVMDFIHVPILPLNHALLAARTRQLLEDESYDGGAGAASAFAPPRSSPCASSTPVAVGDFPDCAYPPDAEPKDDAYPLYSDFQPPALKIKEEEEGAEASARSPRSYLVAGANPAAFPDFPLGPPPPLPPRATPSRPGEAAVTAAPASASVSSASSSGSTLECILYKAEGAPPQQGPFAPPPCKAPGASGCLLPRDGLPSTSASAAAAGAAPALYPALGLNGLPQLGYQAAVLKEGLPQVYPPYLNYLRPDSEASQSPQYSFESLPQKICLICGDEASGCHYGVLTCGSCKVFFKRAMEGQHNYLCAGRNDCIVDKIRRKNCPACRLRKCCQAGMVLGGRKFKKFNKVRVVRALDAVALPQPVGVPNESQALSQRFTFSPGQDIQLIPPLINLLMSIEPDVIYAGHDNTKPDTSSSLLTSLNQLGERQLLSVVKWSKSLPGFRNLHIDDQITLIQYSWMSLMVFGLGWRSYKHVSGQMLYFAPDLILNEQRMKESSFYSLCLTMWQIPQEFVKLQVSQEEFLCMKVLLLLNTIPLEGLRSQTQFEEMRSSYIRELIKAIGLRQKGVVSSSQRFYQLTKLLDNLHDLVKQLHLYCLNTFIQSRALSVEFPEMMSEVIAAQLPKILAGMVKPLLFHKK

[4] = tested on: MXT-M3 tumour; assay: MXT-M3 tumour model in mice, tumour weight at end of test; type: in vivo
Excerpt: For the test, an MXT-M3 tumour which was no longer strictly hormone-dependent was transplanted into mice.
The MXT(+) tumour model was induced in C57BLxDBA2F1 mice by intraperitoneal administration of a urethane solution. The developing mammary tumour could be transplanted further to mice with the same genetic background (syngeneic) and is still an established model. The MXT(+) model is distinguished very particularly by the fact that the tumours express both ER and PR in physiological concentrations. Although there are other hormone receptor-positive tumour models, frequently ER and PR are not functional therein and show no translocation from the cytoplasm into the nucleus after stimulation. Nor is it possible to show growth inhibition by hormone ablation here. These models are unsuitable for investigating antihormonal substances (Watson, Medina et al. 1977).
At the end of the test, the animals were sacrificed and the tumours were removed, and then the weight of the tumours was determined. The variation in the tumour weights is high in each group. The average tumour weights in the vehicle control group (427 mg) was 2.8 times higher than in the ovariectomized group (155 mg) and 2.2 times as high as in the group treated with 11β-(4-acetylphenyl)-17β-hydroxy-17α-(1,1,2,2,2-pentafluoroethyl)estra-4,9-dien-3-one (192 mg).
as §3
It was possible in the investigation of the tumour RNA of the in vivo experiment from Example 1 to identify biomarker candidates. To confirm these potential candidates, an independent animal experiment was carried out with the same study design, increasing the number of animals from ten to 20 per group. At the end of the test, the tumours were removed, the tumour weight was determined and the tumours were stored at −80° C. until RNA was isolated. The results are depicted in FIG. 2/5.
as §4

[5] = tested on: Fgfr2; assay: Relative expression of Fgfr2 versus 18S rRNA in model cell lines; type: cell-based, human
Excerpt: Relative Expression of Fgfr2 Versus 18S rRNA in 6 Model Cell Lines […]
Expression of the receptor for fibroblast growth factor 7 (Fgf7) was not regulated in the sensitive T47-D cells on treatment with ZK-PRA (1.1 times higher on treatment with ZK-PRA). Expression in the ZK-PRA-resistant T47-D without treatment was twice as high as in the sensitive T47-D cells and declined somewhat with ZK-PRA treatment to 1.3 times the value of the untreated sensitive T47-D cells. Expression in all other cells was considerably less both in normal medium and on treatment with ZK-PRA: […]

[6] = tested on: T47-D cells; assay: Proliferation assay of T47-D cells with and without FGF7; type: cell-based, human; details: for growth (of maximum control): 10^−11 mol/l; for inhibition at 10 µM: 10^−5 mol/l
Protocol: The influence of FGF7 on the activity of 11β-(4-acetylphenyl)-17β-hydroxy-17α-(1,1,2,2,2-pentafluoroethyl)estra-4,9-dien-3-one was investigated on T47-D cells. […] 50 ng/ml FGF7 were added to the medium, and the activity of ZK-PRA was determined in a proliferation assay.
It was thus possible to inhibit growth by 58% through withdrawal of E2.
T47-D cells proliferate only in the presence of E2, so that E2 ablation serves as check of maximum growth inhibition. In the proliferation test without Fgf7 it was thus possible to achieve a maximum inhibition of almost 60%. On addition of Fgf7 to the medium, the effect was substantially smaller and the inhibition was now only 29%. Fgf7 thus downregulates not only ER and PR, so that the target for antiestrogens and antiprogestagens is lost, but additionally acts per se as growth factor, so that antihormonal effects or ablation of hormones are compensated. Fgf7 is a potent biomarker candidate. […] This was confirmed in an independent, second in vivo experiment. Fgf7 is a unidirectional, paracrine factor which has a local effect, but is nevertheless secreted, so that investigation is required of whether an elevated Fgf7 serum level possibly correlates with a non-response to treatment with 11β-(4-acetylphenyl)-17β-hydroxy-17α-(1,1,2,2,2-pentafluoroethyl)-estra-4,9-dien-3-one.

[7] = tested on: Fgf7; assay: Gene expression of Fgf7 in MXT tumours, GeneChip (Affymetrix) analysis; type: in vivo, mice; details: Example 1, non-responders (>100 mg) vs responders (<100 mg)
Protocol: as §1, §2, §3

[8] = tested on: Fgf7; assay: Gene expression of Fgf7 in MXT tumours, real-time PCR; type: in vivo, mice; details: for Real-time regulation ZK-PRA NR versus vehicle control / Real-time regulation ZK-PRA R versus vehicle control: Fgf7; for Real-time regulation ZK-PRA NR versus vehicle control: non-responder tumours; for Real-time regulation ZK-PRA R versus vehicle control: responder tumours
Protocol: as §1, §2, §3, §4

[9] = tested on: progesterone receptor (PR-A, PR-B) in T47-D cells; assay: Western blot analysis of the progesterone receptor under the influence of FGF7; type: cell-based, human; details: Fgf7 20 and 50 ng/ml, 24 h and 72 h
Protocol: It is reported in the literature that FGF7 downregulates both ER and PR. In order to detect this effect, cells were incubated in medium with various amounts of FGF7 for 24 h and 72 h, and then the PR content was determined.

CC/C(=C(\c1ccccc1)c1ccc(OCCN(C)C)cc1)c1ccccc1 [tamoxifen]
activity in proliferation tests [1]: no activity

CC(=O)c1ccc([C@H]2C[C@@]3(C)[C@@H](CC[C@@]3(O)C(F)(F)C(F)(F)F)[C@@H]3CCC4=CC(=O)CCC4=C32)cc1 [ZK-PRA, 11β-(4-acetylphenyl)-17β-hydroxy-17α-(1,1,2,2,2-pentafluoroethyl)estra-4,9-dien-3-one]
Fgfr2 expression, non-responders vs. control ([2]; Example 1): 55% | Fgfr2 expression, responder tumours vs. control ([2]; Example 1): 30% | Real-time regulation ZK-PRA NR versus vehicle control ([2]; Example 1): 0.55 (±0.30) | Real-time regulation ZK-PRA R versus vehicle control ([2]; Example 1): 0.30 (±0.07) | Real-time regulation ZK-PRA NR versus vehicle control ([2]; Example 2 confirmation): 0.25 (±0.20) | Real-time regulation ZK-PRA R versus vehicle control ([2]; Example 2 confirmation): 0.47 (±0.34) | antiprogestational activity [3]: high antiprogestational activity | average tumour weight ([4]; Example 1, treated group, end of test): 192 mg | average tumour weight of vehicle control group relative to treated group ([4]; Example 1, vehicle 427 mg): 2.2 times | average tumour weight ([4]; Example 2 confirmation experiment, treated group): 215 mg | average tumour weight of vehicle control group relative to treated group ([4]; Example 2 confirmation experiment, vehicle 577 mg): 2.7 times | Fgfr2 mRNA on treatment compared with untreated T47-D cells ([5]; BT-474 cells): 37 times lower | Fgfr2 mRNA on treatment compared with untreated sensitive T47-D cells ([5]; MCF-7 cells): 153 times lower | Fgfr2 expression on treatment relative to untreated sensitive T47-D cells ([5]; ZK-PRA-resistant T47-D cells): 1.3 times | Fgfr2 expression on treatment compared with T47-D under normal conditions ([5]; ZR75-1 cells): 9.4 times lower | Fgfr2 expression on treatment relative to untreated ([5]; sensitive T47-D cells): 1.1 times higher | growth (of maximum control) ([6]; FGF7 50 ng/ml): 114% | growth (of maximum control) ([6]; without FGF7): 114% | maximum growth inhibition ([6]; Fgf7 50 ng/ml in the culture medium, no dose-response relation): about 20% | inhibition at 10 µM ([6]; Homo sapiens, T47D, FGF7 50 ng/ml in the medium, read-out: growth inhibition): 24% | inhibition at 10 µM ([6]; Homo sapiens, T47D, without FGF7, maximum control (E2) = 100%, read-out: growth inhibition): 42% | inhibition at 1 µM ([6]; Homo sapiens, T47D, 10^−6 mol/l, without FGF7, read-out: growth inhibition): 47% | inhibition at 0.1 µM ([6]; Homo sapiens, T47D, 10^−7 mol/l, without FGF7, read-out: growth inhibition): 50% | growth inhibition ([6]; next lower concentration after 10^−5 mol/l, FGF7 50 ng/ml): 18% | activity in the proliferation assay ([6]; sensitive T47-D cells, without FGF7): good activity | Affymetrix regulation ZK-PRA NR versus ZK-PRA R [7]: 2.30 (±0.33) | Fgf7 expression in non-responder tumours relative to vehicle controls ([8]; Example 1): 3.12 times | Fgf7 expression in responder tumours compared with the controls ([8]; Example 1): 70% | Real-time regulation ZK-PRA NR versus vehicle control ([8]; Example 1): 3.12 (±0.68) | Real-time regulation ZK-PRA R versus vehicle control ([8]; Example 1): 0.69 (±0.38) | Real-time regulation ZK-PRA NR versus vehicle control ([8]; Example 2 confirmation): 3.25 (±1.91) | Real-time regulation ZK-PRA R versus vehicle control ([8]; Example 2 confirmation): 1.72 (±0.68)

B1: Fgf7: Fibroblast growth factor 7, secreted glycoprotein; recombinant Fgf7 added to culture medium (protein, UniProt P21781 32-194, looked up)
Fibroblast growth factor 7: CNDMTPEQMATNVNCSSPERHTRSYDYMEGGDIRVRRLFCRTQWYLRIDKRGKVKGTQEMKNNYNIMEIRTVAVGIVAIKGVESEFYLAMNKEGKLYAKKECNEDCNFKELILENHYNTYASAKWTHNGGEMFVALNQKGIPVRGKKTKKEQKTAHFLPMAIT
amount of PR (Western blot) [9]: distinct decrease in PR
